In brackets after ≈: the same amount, converted by molar mass.
Assays:
Vibrio cholerae [1] = assay: Antimicrobial activity against Vibrio cholerae 01 after 18 to 20 hr by agar dilution method; assay type: functional; details: 1
Priestia megaterium = assay: Antimicrobial activity against Bacillus megaterium after 18 to 20 hr by agar dilution method; assay type: functional
Enterobacter = assay: Antimicrobial activity against Enterobacter after 18 to 20 hr by agar dilution method; assay type: functional
Citrobacter freundii = assay: Antimicrobial activity against Citrobacter freundii after 18 to 20 hr by agar dilution method; assay type: functional
Salmonella enteritidis = assay: Antimicrobial activity against Salmonella enterica subsp. enterica serovar Enteritidis after 18 to 20 hr by agar dilution method; assay type: functional
Salmonella typhimurium = assay: Antimicrobial activity against Salmonella enterica subsp. enterica serovar Typhimurium after 18 to 20 hr by agar dilution method; assay type: functional
Proteus mirabilis = assay: Antimicrobial activity against Proteus mirabilis after 18 to 20 hr by agar dilution method; assay type: functional
Proteus vulgaris = assay: Antimicrobial activity against Proteus vulgaris after 18 to 20 hr by agar dilution method; assay type: functional
Edwardsiella tarda = assay: Antimicrobial activity against Edwardsiella tarda after 18 to 20 hr by agar dilution method; assay type: functional
Escherichia coli = assay: Antimicrobial activity against Escherichia coli NCTC 10418 after 18 to 20 hr by agar dilution method; assay type: functional
Salmonella typhi = assay: Antimicrobial activity against Salmonella enterica subsp. enterica serovar Typhi after 18 to 20 hr by agar dilution method; assay type: functional
Salmonella paratyphi = assay: Antimicrobial activity against Salmonella enterica subsp. enterica serovar Paratyphi A after 18 to 20 hr by agar dilution method; assay type: functional
Vibrio parahaemolyticus = assay: Antimicrobial activity against Vibrio parahaemolyticus after 18 to 20 hr by agar dilution method; assay type: functional
Vibrio cholerae [2] = assay: Antimicrobial activity against Vibrio cholerae 0139 after 18 to 20 hr by agar dilution method; assay type: functional; details: 139
Vibrio fluvialis = assay: Antimicrobial activity against Vibrio fluvialis after 18 to 20 hr by agar dilution method; assay type: functional
Vibrio mimicus = assay: Antimicrobial activity against Vibrio mimicus after 18 to 20 hr by agar dilution method; assay type: functional
Pseudomonas aeruginosa = assay: Antimicrobial activity against Pseudomonas aeruginosa after 18 to 20 hr by agar dilution method; assay type: functional
Staphylococcus aureus = assay: Antimicrobial activity against Staphylococcus aureus after 18 to 20 hr by agar dilution method; assay type: functional
Morganella morganii = assay: Antimicrobial activity against Morganella morganii after 18 to 20 hr by agar dilution method; assay type: functional
Shigella boydii = assay: Antimicrobial activity against Shigella boydii after 18 to 20 hr by agar dilution method; assay type: functional
Plesiomonas = assay: Antimicrobial activity against Plesiomonas after 18 to 20 hr by agar dilution method; assay type: functional
Shigella sonnei = assay: Antimicrobial activity against Shigella sonnei after 18 to 20 hr by agar dilution method; assay type: functional
Klebsiella pneumoniae [3] = assay: Antimicrobial activity against Klebsiella pneumoniae after 18 to 20 hr by agar dilution method; assay type: functional
Klebsiella pneumoniae [4] = assay: Antimicrobial activity against Klebsiella pneumoniae subsp. ozaenae after 18 to 20 hr by agar dilution method; assay type: functional
[5] = system: Mycobacterium tuberculosis; assay: Antimycobacterial activity against Mycobacterium tuberculosis H37Rv ATCC 27294 at 6.25 ug/ml by MABA; assay type: functional
[6] = Cytotoxicity against Homo sapiens (human) HuH7 cells assessed as cell growth at 50 ug/ml after 3 days by Neutral red assay; assay type: cell-based, Huh-7; details: read-out: Activity
[7] = Cytotoxicity against Homo sapiens (human) CEM cells after 5 days by MTT assay; assay type: cell-based; details: CEM cells (CCRF-CEM)
[8] = system: Human immunodeficiency virus 1; assay: Antiviral activity against Human immunodeficiency virus 1 IIIB infected CEM cells assessed as protection against viral infection after 6 days by XTT assay; assay type: functional, CCRF-CEM; parameters: concentration or dose not given beside the values
[9] = system: Human immunodeficiency virus 1; assay: Antiviral activity against Human immunodeficiency virus 1 IIIB infected CEM cells assessed as inhibition of virus-induced cytopathicity after 6 days by XTT assay; assay type: functional, organism-based; details: CCRF-CEM, 144 h
[10] = Cytotoxicity against Homo sapiens (human) MT4 cells after 5 days by MTT assay; assay type: cell-based
[11] = system: Human immunodeficiency virus 1; assay: Antiviral activity against Human immunodeficiency virus 1 IIIB infected MT4 cells assessed as inhibition of virus-induced cytopathicity after 5 days by MTT assay; assay type: functional, organism-based; details: MT4, 120 h
Hepatitis C virus = assay: Antiviral activity against Hepatitis C virus BM4-5 infected in Huh7 cells assessed as inhibition of viral RNA replication by phosphor screening method; assay type: functional, Hepacivirus hominis, Huh-7
[12] = system: Human immunodeficiency virus 1; assay: Antiviral activity against Human immunodeficiency virus 1 IIIB infected MT4 cells assessed as protection against viral infection after 5 days by MTT assay; assay type: functional; parameters: concentration or dose not given beside the values

SMILES	MIC (Vibrio cholerae [1]) [mg/L]	MIC (Priestia megaterium) [mg/L]	MIC (Enterobacter) [mg/L]	MIC (Citrobacter freundii) [mg/L]	MIC (Salmonella enteritidis) [mg/L]	MIC (Salmonella typhimurium) [mg/L]	MIC (Proteus mirabilis) [mg/L]	MIC (Proteus vulgaris) [mg/L]	MIC (Edwardsiella tarda) [mg/L]	MIC (Escherichia coli) [mg/L]	MIC (Salmonella typhi) [mg/L]	MIC (Salmonella paratyphi) [mg/L]	MIC (Vibrio parahaemolyticus) [mg/L]	MIC (Vibrio cholerae [2]) [mg/L]	MIC (Vibrio fluvialis) [mg/L]	MIC (Vibrio mimicus) [mg/L]	MIC (Pseudomonas aeruginosa) [mg/L]	MIC (Staphylococcus aureus) [mg/L]	MIC (Morganella morganii) [mg/L]	MIC (Shigella boydii) [mg/L]	other results
COc1cc(Cc2cnc(/N=C3\C(=O)N(CN4CCC(C)CC4)c4ccc(Cl)cc43)nc2N)cc(OC)c1OC	4.88 (≈ 8.64 µM)	625 (≈ 1110 µM)	1250 (≈ 2210 µM)	312 (≈ 553 µM)	1250 (≈ 2210 µM)	1250 (≈ 2210 µM)	1250 (≈ 2210 µM)	1250 (≈ 2210 µM)	1250 (≈ 2210 µM)	1250 (≈ 2210 µM)	1250 (≈ 2210 µM)	312 (≈ 553 µM)	2.44 (≈ 4.32 µM)	1250 (≈ 2210 µM)	1250 (≈ 2210 µM)	1.22 (≈ 2.16 µM)	1250 (≈ 2210 µM)	1250 (≈ 2210 µM)	1250 (≈ 2210 µM)	4.88 (≈ 8.64 µM)	MIC (Plesiomonas): 39.1 mg/L (≈ 69.1 µM); MIC (Shigella sonnei): 1250 mg/L (≈ 2210 µM); MIC (Klebsiella pneumoniae [3]): 1250 mg/L (≈ 2210 µM); MIC (Klebsiella pneumoniae [4]): 625 mg/L (≈ 1110 µM); inhibition at 6.25 µg/mL [5]: 15%; viability at 72 h, 50 ug/ml [6]: 108%; CC50 at 120 h [7]: 46.3 mg/L (≈ 81.9 µM); Activity [8]: 22.07%; EC50 [9]: > 46.3 mg/L; CC50 at 120 h [10]: 67.4 mg/L (≈ 119 µM); EC50 [11]: > 67.4 mg/L; inhibition (INH) (Hepatitis C virus): 81%; Activity [12]: 41.7%
COc1cc(Cc2cnc(/N=C3\C(=O)N(CN4CCN(Cc5ccccc5)CC4)c4ccc(Cl)cc43)nc2N)cc(OC)c1OC	4.88 (≈ 7.6 µM)	625 (≈ 973 µM)	625 (≈ 973 µM)	625 (≈ 973 µM)	625 (≈ 973 µM)	625 (≈ 973 µM)	625 (≈ 973 µM)	625 (≈ 973 µM)	625 (≈ 973 µM)	625 (≈ 973 µM)	625 (≈ 973 µM)	625 (≈ 973 µM)	9.76 (≈ 15.2 µM)	625 (≈ 973 µM)	625 (≈ 973 µM)	2.44 (≈ 3.8 µM)	1250 (≈ 1950 µM)	625 (≈ 973 µM)	625 (≈ 973 µM)	39.1 (≈ 60.8 µM)	MIC (Plesiomonas): 39.1 mg/L (≈ 60.8 µM); MIC (Shigella sonnei): 1250 mg/L (≈ 1950 µM); MIC (Klebsiella pneumoniae [3]): 625 mg/L (≈ 973 µM); MIC (Klebsiella pneumoniae [4]): 1250 mg/L (≈ 1950 µM); inhibition at 6.25 µg/mL [5]: 50%; viability at 72 h, 50 ug/ml [6]: 79%; CC50 at 120 h [7]: 94.7 mg/L (≈ 147 µM); Activity [8]: 22.33%; EC50 [9]: > 94.7 mg/L; CC50 at 120 h [10]: 36.1 mg/L (≈ 56.2 µM); EC50 [11]: > 36.1 mg/L; inhibition (INH) (Hepatitis C virus): 66%; Activity [12]: 41.8%
COc1c(N2CCNC(C)C2)c(F)cc2c(=O)c(C(=O)O)cn(C3CC3)c12 (stereo not given) [GATIFLOXACIN]	0.02 (≈ 0.0533 µM)	0.08 (≈ 0.213 µM)	0.02 (≈ 0.0533 µM)	0.08 (≈ 0.213 µM)	0.02 (≈ 0.0533 µM)	0.02 (≈ 0.0533 µM)	0.02 (≈ 0.0533 µM)	0.02 (≈ 0.0533 µM)	0.02 (≈ 0.0533 µM)	0.02 (≈ 0.0533 µM)	0.02 (≈ 0.0533 µM)	0.02 (≈ 0.0533 µM)	9.77 (≈ 26 µM)	0.02 (≈ 0.0533 µM)	0.02 (≈ 0.0533 µM)	0.15 (≈ 0.4 µM)	0.15 (≈ 0.4 µM)	0.02 (≈ 0.0533 µM)	0.02 (≈ 0.0533 µM)	1.22 (≈ 3.25 µM)	MIC (Plesiomonas): 2.44 mg/L (≈ 6.5 µM); MIC (Shigella sonnei): 0.08 mg/L (≈ 0.213 µM); MIC (Klebsiella pneumoniae [3]): 0.08 mg/L (≈ 0.213 µM); MIC (Klebsiella pneumoniae [4]): 0.08 mg/L (≈ 0.213 µM)
